Results from PubChem BioAssay AID588733 (Vanderbilt Specialized Chemistry Center, 2011).
Activity calls are given as the source filed them. No rule for the calls is given here.

Target: Metabotropic glutamate receptor 2 (Rattus norvegicus) (UniProt P31421)
Experiment: rat mGlu2 allosteric modulation, glutamate curve shift, thallium flux, GIRK cells (AID 588733)
Conditions: glutamate CRC fold shift, at 10 µM, stronger effect = higher value

Sequence of Metabotropic glutamate receptor 2 (Rattus norvegicus) (P31421 whole entry, looked up): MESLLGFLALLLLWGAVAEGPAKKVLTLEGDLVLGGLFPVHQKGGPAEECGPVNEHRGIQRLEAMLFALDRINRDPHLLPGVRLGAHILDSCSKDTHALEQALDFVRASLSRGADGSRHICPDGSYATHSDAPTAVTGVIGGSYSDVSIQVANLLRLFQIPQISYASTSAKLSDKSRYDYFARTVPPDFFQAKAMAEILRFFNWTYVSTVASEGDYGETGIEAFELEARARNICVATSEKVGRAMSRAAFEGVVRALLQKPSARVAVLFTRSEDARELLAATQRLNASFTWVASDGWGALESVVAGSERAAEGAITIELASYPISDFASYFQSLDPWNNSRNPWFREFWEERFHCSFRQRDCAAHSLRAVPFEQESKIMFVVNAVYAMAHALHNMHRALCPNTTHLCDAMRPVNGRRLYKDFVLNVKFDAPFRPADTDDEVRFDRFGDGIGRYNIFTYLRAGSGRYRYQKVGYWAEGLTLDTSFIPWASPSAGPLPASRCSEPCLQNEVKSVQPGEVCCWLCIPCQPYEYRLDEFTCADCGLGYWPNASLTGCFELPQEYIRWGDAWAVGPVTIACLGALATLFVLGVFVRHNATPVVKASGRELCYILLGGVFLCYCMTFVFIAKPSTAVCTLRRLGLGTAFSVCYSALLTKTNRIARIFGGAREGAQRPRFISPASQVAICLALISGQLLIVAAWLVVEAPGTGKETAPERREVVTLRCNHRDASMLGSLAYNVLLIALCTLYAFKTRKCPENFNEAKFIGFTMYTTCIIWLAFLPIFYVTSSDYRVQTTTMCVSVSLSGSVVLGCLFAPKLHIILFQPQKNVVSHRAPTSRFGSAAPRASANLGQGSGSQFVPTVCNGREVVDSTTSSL

fold shift	Structure (SMILES)
1.02 (inactive)	C[C@@H](NC(=O)c1ccc(C#Cc2cccc(F)c2)cn1)C(C)(C)O
0.92 (inactive)	CC1(NC(=O)c2ccc(C#Cc3cccc(F)c3)cn2)COC1
